Assay results as given in ChEMBL document CHEMBL3991601, “The target landscape of clinical kinase drugs” (Science, 2017).
Structures can show the parent of a compound that is named as a salt. The source made the active and inactive calls. For most assays here, no stated cut-off is given here; in the data, actives have a measured Kd and inactives only a lower limit.

Experiments:
[1] = molecular target: Casein kinase I isoform epsilon (Homo sapiens, UniProt P49674)
[2] = molecular target: Casein kinase II subunit alpha' (Homo sapiens, UniProt P19784)
Sequence of Casein kinase II subunit alpha' (P19784 whole entry): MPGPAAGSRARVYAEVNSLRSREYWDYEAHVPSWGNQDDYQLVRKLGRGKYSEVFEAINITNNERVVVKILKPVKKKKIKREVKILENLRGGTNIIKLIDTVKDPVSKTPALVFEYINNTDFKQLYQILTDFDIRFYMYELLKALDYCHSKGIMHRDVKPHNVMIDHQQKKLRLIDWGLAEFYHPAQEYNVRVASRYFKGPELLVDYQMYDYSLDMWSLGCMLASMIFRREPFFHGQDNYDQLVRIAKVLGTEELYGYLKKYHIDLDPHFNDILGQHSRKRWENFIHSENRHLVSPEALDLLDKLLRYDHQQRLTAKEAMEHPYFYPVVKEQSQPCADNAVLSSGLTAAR

[3] = molecular target: T1, Serine/threonine-protein kinase Nek9 (Homo sapiens, UniProt Q8TD19)
T1 sequence (Q8TD19 whole entry): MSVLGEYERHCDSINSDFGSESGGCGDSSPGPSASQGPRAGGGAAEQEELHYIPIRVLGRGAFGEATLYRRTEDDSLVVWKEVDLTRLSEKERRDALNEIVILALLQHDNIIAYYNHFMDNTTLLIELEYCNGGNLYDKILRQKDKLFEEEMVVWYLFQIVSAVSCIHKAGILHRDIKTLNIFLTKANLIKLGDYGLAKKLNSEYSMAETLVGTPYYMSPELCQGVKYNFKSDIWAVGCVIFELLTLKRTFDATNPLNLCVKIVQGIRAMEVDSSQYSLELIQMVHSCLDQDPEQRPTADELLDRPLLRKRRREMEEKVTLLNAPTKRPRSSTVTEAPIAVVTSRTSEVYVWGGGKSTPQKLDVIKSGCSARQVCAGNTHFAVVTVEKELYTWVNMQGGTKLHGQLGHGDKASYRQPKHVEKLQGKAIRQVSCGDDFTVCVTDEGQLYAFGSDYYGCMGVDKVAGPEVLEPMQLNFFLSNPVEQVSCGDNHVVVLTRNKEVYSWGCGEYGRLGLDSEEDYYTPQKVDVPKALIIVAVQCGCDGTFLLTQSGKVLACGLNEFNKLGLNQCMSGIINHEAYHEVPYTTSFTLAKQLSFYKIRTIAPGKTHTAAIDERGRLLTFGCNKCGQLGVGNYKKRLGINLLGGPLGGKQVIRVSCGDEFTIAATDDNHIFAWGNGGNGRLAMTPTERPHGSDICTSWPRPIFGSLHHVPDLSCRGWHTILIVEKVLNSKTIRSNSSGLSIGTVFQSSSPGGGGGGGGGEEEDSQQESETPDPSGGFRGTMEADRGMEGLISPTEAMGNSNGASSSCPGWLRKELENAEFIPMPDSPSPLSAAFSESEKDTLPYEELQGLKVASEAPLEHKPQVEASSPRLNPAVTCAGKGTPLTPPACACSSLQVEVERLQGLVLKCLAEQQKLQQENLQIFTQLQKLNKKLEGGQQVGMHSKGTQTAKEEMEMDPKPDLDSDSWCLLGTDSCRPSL

[4] = molecular target: T2, Signal recognition particle receptor subunit alpha (Homo sapiens, UniProt P08240)
T2 sequence (P08240 whole entry): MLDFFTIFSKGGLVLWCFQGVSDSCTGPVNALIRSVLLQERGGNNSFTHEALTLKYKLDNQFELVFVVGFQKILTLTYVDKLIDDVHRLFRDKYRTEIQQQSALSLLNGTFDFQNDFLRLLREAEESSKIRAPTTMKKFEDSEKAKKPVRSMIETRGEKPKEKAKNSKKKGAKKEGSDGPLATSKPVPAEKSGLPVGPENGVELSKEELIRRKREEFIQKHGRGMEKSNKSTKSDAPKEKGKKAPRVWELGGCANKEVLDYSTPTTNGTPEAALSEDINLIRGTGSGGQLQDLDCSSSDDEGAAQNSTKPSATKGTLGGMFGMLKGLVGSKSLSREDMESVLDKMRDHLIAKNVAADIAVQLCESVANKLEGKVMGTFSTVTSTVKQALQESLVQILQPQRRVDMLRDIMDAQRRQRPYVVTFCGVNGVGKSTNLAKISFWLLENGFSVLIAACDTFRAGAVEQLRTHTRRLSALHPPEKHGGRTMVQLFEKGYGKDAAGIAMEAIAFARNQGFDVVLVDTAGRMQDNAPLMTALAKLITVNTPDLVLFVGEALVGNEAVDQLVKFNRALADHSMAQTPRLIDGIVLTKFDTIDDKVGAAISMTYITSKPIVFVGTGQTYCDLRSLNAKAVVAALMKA

TGF-beta receptor type-2 = TGF-beta receptor type-2 (Homo sapiens, UniProt P37173)
Sequence of TGF-beta receptor type-2 (P37173 whole entry): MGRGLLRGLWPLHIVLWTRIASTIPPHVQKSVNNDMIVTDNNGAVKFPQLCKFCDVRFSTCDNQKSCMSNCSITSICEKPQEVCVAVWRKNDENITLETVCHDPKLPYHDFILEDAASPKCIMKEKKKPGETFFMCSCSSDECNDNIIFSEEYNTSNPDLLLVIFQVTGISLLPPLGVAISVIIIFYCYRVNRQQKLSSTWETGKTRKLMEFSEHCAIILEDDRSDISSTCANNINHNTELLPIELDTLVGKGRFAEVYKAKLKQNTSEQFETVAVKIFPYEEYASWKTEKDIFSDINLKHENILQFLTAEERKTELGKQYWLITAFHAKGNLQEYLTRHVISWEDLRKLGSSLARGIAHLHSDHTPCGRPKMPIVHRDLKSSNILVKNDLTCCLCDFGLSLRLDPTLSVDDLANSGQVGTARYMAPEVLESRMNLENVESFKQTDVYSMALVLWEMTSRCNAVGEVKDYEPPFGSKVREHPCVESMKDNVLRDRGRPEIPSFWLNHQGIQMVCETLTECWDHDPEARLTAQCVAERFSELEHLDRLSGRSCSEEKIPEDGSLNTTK

[5] = molecular target: Serine/threonine-protein kinase pim-1 (Homo sapiens, UniProt P11309)
Sequence of Serine/threonine-protein kinase pim-1 (P11309 whole entry): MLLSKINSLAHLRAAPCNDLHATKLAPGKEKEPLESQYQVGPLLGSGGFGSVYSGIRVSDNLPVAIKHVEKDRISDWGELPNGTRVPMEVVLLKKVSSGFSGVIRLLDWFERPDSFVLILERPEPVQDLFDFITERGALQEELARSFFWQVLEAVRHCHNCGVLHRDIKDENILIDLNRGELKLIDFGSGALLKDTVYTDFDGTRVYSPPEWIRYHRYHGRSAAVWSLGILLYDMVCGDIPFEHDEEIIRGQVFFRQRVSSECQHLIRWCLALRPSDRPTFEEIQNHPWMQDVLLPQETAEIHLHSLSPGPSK

Activin receptor type-2B = Activin receptor type-2B (Homo sapiens, UniProt Q13705)
Sequence of Activin receptor type-2B (Q13705 whole entry): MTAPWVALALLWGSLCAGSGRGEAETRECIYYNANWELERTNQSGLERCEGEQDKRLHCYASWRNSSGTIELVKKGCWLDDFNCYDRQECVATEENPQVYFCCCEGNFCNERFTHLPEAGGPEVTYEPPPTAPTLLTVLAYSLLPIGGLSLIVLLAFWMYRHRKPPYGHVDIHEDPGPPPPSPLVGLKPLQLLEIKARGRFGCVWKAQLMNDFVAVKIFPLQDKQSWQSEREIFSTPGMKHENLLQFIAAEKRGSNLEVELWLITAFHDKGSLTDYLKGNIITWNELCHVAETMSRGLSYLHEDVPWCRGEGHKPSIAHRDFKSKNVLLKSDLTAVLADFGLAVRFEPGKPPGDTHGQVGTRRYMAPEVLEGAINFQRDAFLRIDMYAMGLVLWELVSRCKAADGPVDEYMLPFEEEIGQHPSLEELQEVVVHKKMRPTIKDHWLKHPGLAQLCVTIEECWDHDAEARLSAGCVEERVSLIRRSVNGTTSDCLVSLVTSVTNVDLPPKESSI

[6] = molecular target: Serine/threonine-protein kinase N2 (Homo sapiens, UniProt Q16513)
Sequence of Serine/threonine-protein kinase N2 (Q16513 whole entry): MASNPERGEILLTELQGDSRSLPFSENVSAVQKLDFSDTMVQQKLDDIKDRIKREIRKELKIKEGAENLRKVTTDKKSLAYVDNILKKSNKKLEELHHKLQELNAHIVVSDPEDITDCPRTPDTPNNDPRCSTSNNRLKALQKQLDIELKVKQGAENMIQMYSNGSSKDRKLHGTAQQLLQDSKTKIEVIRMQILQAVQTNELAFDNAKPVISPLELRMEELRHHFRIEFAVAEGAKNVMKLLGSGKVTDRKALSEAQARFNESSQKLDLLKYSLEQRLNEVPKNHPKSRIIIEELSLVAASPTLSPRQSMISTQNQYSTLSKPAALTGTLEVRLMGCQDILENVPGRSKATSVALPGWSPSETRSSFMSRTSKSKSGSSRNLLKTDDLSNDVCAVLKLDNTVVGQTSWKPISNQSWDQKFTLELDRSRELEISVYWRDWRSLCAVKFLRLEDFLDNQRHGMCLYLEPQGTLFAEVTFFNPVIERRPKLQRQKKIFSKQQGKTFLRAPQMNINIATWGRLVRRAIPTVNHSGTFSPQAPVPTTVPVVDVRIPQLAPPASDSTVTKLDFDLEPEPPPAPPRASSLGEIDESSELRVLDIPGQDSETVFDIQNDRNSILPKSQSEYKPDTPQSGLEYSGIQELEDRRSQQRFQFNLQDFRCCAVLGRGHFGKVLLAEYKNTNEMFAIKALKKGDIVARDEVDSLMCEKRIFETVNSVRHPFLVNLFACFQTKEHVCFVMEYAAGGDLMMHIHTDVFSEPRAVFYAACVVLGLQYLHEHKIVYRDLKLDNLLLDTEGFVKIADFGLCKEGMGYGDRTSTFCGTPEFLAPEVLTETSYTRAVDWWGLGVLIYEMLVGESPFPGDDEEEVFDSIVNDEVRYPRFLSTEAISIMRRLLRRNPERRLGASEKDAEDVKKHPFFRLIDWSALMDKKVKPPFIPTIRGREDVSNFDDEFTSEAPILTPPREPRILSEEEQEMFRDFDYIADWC

[7] = molecular target: Serine/threonine-protein kinase 16 (Homo sapiens, UniProt O75716)
Sequence of Serine/threonine-protein kinase 16 (O75716 whole entry): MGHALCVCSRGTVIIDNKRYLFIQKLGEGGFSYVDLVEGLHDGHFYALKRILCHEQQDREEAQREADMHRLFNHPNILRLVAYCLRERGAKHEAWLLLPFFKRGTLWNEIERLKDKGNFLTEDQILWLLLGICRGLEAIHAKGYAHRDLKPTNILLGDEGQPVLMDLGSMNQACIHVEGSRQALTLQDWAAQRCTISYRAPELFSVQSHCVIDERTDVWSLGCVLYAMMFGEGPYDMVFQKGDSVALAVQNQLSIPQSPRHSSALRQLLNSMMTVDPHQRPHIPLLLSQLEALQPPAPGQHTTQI

Scaffold protein ILK = molecular target: T3, Scaffold protein ILK (Homo sapiens, UniProt Q13418)
T3 sequence (Q13418 whole entry): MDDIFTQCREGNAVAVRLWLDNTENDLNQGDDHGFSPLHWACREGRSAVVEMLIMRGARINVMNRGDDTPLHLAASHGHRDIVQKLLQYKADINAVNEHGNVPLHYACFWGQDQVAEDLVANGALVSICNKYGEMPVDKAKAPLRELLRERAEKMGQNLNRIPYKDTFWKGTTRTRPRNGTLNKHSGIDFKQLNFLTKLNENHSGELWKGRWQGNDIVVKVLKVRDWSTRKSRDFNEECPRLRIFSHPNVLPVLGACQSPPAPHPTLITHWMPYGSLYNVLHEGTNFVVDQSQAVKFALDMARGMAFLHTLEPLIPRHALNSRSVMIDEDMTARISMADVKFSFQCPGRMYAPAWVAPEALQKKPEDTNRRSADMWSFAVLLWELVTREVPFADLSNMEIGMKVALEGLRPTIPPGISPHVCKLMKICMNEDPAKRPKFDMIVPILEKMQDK

[8] = molecular target: T4, Phosphatidylinositol 5-phosphate 4-kinase type-2 alpha (Homo sapiens, UniProt P48426)
T4 sequence (P48426 whole entry): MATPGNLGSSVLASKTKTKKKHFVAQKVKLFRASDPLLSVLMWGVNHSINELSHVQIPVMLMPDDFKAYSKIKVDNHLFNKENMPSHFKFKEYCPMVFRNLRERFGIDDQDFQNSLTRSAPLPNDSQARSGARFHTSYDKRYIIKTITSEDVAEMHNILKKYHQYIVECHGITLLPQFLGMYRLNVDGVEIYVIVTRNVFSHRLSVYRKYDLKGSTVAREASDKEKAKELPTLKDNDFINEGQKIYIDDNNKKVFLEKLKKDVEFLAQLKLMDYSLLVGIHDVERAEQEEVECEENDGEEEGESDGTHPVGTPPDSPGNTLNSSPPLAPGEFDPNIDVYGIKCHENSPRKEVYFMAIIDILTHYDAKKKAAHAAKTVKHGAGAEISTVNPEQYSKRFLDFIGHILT

Sequence of Casein kinase I isoform epsilon (P49674 whole entry, canonical isoform): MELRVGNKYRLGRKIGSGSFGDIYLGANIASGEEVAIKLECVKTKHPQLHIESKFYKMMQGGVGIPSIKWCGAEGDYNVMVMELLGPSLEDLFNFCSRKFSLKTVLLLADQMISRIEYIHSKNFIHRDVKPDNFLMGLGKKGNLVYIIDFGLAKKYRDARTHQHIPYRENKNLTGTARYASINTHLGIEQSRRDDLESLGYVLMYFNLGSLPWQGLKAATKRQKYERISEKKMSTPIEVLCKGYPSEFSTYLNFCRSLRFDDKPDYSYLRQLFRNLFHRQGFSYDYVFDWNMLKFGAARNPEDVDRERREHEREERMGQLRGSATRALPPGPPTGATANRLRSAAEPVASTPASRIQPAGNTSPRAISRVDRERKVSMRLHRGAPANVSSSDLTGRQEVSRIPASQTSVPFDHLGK

SMILES | Kd [1] | Kd [2] | Kd [4] | Kd (TGF-beta receptor type-2) | Kd [5] | Kd (Activin receptor type-2B) | Kd [6] | Kd [7] | Kd (Scaffold protein ILK) | Kd [8] | Kd [3]
C[C@@H](Oc1cc(C(=O)Nc2ccc(C(=O)N3CCN(C)CC3)cc2)nnc1N)c1c(Cl)ccc(F)c1Cl | > 30 µM (inactive) | > 30 µM (inactive) | > 30 µM (inactive) | > 30 µM (inactive) | > 30 µM (inactive) | > 30 µM (inactive) | > 30 µM (inactive) | > 30 µM (inactive) | > 30 µM (inactive) |  | > 30 µM (inactive)
C[C@H]1CNCCCN1S(=O)(=O)c1cccc2cncc(F)c12 | > 30 µM (inactive) | > 30 µM (inactive) |  |  | > 30 µM (inactive) | > 30 µM (inactive) | 0.285 µM (active) | > 30 µM (inactive) | > 30 µM (inactive) |  | > 30 µM (inactive)
Cc1cc(Nc2ncc(Cl)c(Nc3ccccc3S(=O)(=O)C(C)C)n2)c(OC(C)C)cc1C1CCNCC1 [CERITINIB] | > 30 µM (inactive) | > 30 µM (inactive) | > 30 µM (inactive) | > 30 µM (inactive) | > 30 µM (inactive) | > 30 µM (inactive) | > 30 µM (inactive) | > 30 µM (inactive) | > 30 µM (inactive) | > 30 µM (inactive) | > 30 µM (inactive)
CCS(=O)(=O)N1CCN(c2ccc(Nc3ncc(C(N)=O)c(NC4CC4)n3)cc2)CC1 [Cerdulatinib Hydrochloride] | > 30 µM (inactive) | 16.3 µM (active) | > 30 µM (inactive) | > 30 µM (inactive) | > 30 µM (inactive) | > 30 µM (inactive) | > 30 µM (inactive) | > 30 µM (inactive) | > 30 µM (inactive) | > 30 µM (inactive) | > 30 µM (inactive)
Cn1cc(C2=C(c3cn(C4CCN(Cc5ccccn5)CC4)c4ccccc34)C(=O)NC2=O)c2ccccc21 [ENZASTAURIN] |  |  |  |  |  |  |  |  | > 30 µM (inactive) | > 30 µM (inactive) | 
O=C(Nc1cc(C(F)(F)F)cc(C(F)(F)F)c1)c1cc(Cl)ccc1O [IMD-0354] | > 30 µM (inactive) | > 30 µM (inactive) | > 30 µM (inactive) | > 30 µM (inactive) |  | > 30 µM (inactive) | > 30 µM (inactive) | > 30 µM (inactive) | > 30 µM (inactive) | > 30 µM (inactive) | > 30 µM (inactive)
CNC(=O)c1nn(C)c2c1C(C)(C)Cc1cnc(Nc3ccc(N4CCN(C)CC4)cc3)nc1-2 [MILCICLIB] |  | 3.5 µM (active) | > 30 µM (inactive) | > 30 µM (inactive) | > 30 µM (inactive) | > 30 µM (inactive) | > 30 µM (inactive) | 1.1 µM (active) | > 30 µM (inactive) | > 30 µM (inactive) | 19.6 µM (active)
FC(F)(F)c1ccc(/C=C/c2nc(COc3ccc(CCCCn4ccnn4)cc3)co2)cc1 [MUBRITINIB] | > 30 µM (inactive) | > 30 µM (inactive) | > 30 µM (inactive) | > 30 µM (inactive) | > 30 µM (inactive) | > 30 µM (inactive) | > 30 µM (inactive) | > 30 µM (inactive) | > 30 µM (inactive) |  | > 30 µM (inactive)
Cc1[nH]c(/C=C2\C(=O)Nc3ccccc32)c(C)c1CCC(=O)O [ORANTINIB] |  | 2.1 µM (active) | > 30 µM (inactive) | > 30 µM (inactive) |  | > 30 µM (inactive) |  |  | > 30 µM (inactive) | > 30 µM (inactive) | > 30 µM (inactive)
CO[C@H]1C[C@@H]2CC[C@@H](C)[C@@](O)(O2)C(=O)C(=O)N2CCCC[C@H]2C(=O)O[C@H]([C@H](C)C[C@@H]2CC[C@@H](OP(C)(C)=O)[C@H](OC)C2)CC(=O)[C@H](C)/C=C(\C)[C@@H](O)[C@@H](OC)C(=O)[C@H](C)C[C@H](C)/C=C/C=C/C=C/1C [RIDAFOROLIMUS] | > 30 µM (inactive) | > 30 µM (inactive) | > 30 µM (inactive) | > 30 µM (inactive) | > 30 µM (inactive) | > 30 µM (inactive) | > 30 µM (inactive) | > 30 µM (inactive) | > 30 µM (inactive) | > 30 µM (inactive) | > 30 µM (inactive)
N#CC[C@H](C1CCCC1)n1cc(-c2ncnc3[nH]ccc23)cn1 [RUXOLITINIB] |  |  |  |  |  |  |  |  | > 30 µM (inactive) | > 30 µM (inactive) | 

The next lines start with results.

Kd [1] | Kd [2] | Kd [4] | Kd (TGF-beta receptor type-2) | Kd [5] | Kd (Activin receptor type-2B) | Kd [6] | Kd [7] | Kd (Scaffold protein ILK) | Kd [8] | SMILES | Kd [3]
60.5 µM (active) | > 30 µM (inactive) |  | > 30 µM (inactive) | > 30 µM (inactive) | > 30 µM (inactive) | > 30 µM (inactive) | > 30 µM (inactive) | > 30 µM (inactive) |  | Nc1ncnc2c1c(-c1cccc(OCc3ccccc3)c1)cn2[C@H]1C[C@@H](CN2CCC2)C1 [AEW-541] | > 30 µM (inactive)
> 30 µM (inactive) | > 30 µM (inactive) |  | > 30 µM (inactive) | > 30 µM (inactive) |  | > 30 µM (inactive) | > 30 µM (inactive) | > 30 µM (inactive) | > 30 µM (inactive) | CCn1cc(-c2ccnc3[nH]c(-c4cccc(CN(C)C)c4)cc23)c(-c2ccc(NC(=O)N(C)C)cc2)n1 [GSK-1070916] | > 30 µM (inactive)
1.47 µM | > 30 µM (inactive) | > 30 µM (inactive) |  |  | > 30 µM (inactive) |  | > 30 µM (inactive) | > 30 µM (inactive) | > 30 µM (inactive) | NC(=O)c1c(OCc2c(F)cc(Br)cc2F)nsc1NC(=O)NCCCCN1CCCC1 [OSI-632] | > 30 µM (inactive)
> 30 µM (inactive) | 2.44 µM (active) | > 30 µM (inactive) | > 30 µM (inactive) | > 30 µM (inactive) | > 30 µM (inactive) | > 30 µM (inactive) | > 30 µM (inactive) | > 30 µM (inactive) |  | CC(C)c1cc(CNc2nc(Nc3cc(C4CC4)[nH]n3)cc(N3CCN(C)CC3)n2)on1 [XL-228] | > 30 µM (inactive)
